Experimental data reported in US20230089867A1, “CYCLIC PENTAMER COMPOUNDS AS PROPROTEIN CONVERTASE SUBTILISIN/KEXIN TYPE 9 (PCSK9) INHIBITORS FOR THE TREATMENT OF METABOLIC DISORDER” (Novartis AG, priority 2018, published 2023).
Like-named read-outs stand apart in the source and are kept apart here.

Biological target: human PCSK9 (Homo sapiens, UniProt Q8NBP7)
Test: PCSK9 ligand binding TR-FRET assay (interference with binding of human PCSK9 to human LDLR)
Conditions: for Max % inhibition: PCSK9 FRET assay, efficacy (Amax), 100% = 1 uM unlabeled human PCSK9, 0% = DMSO
Protocol: The PCSK9 binding of the compounds of the disclosure were measured using a time resolved fluorescence resonance energy transfer (TR-FRET) assay. This time resolved fluorescence resonance energy transfer (TR-FRET) assay measures the ability of a compound of the present disclosure to interfere with the binding of human PCSK9 to human LDLR, providing measures of both potency (IC50) and efficacy (Amax).
These solutions were pipetted into columns 1 and 11 of the compound plate. Threefold serial dilutions were generated in columns 2-10 and 12-20 of the compound plate by transferring 10 uL into 20 uL of DMSO. Columns 21 and 22 of the compound plate were negative controls containing DMSO alone.
An intermediate plate was generated in a Greiner V bottom plate by transferring 8 uL from each well of the master plate into a corresponding well containing 92 uL of assay buffer and mixing thoroughly.
A Proxi plate-low volume assay plate was used for the assay. […] For the positive control wells in columns 23 and 24 of the plate, 5 uL of unlabeled human PCSK9 was added at 4 uM in assay buffer containing 8% DMSO. Following a 30 minute incubation, 5 uL of 4 nM Human LDLR extracellular domain-Europium Kryptate was added and the mixture was incubated for an additional 2 hours.
The FRET ratio (FRET/Europium) was used for calculations.
Data is expressed as percent inhibition: (value−0%)/(100%−0%).

[1] = TR-FRET, human PCSK9 Alexa Fluor 647 / human LDLR extracellular domain-Europium Kryptate, read-out: PCSK9 FRET Assay IC50

| Structure (SMILES) | IC50 [nM] | Max % inhibition [%] | IC50 [1] [nM] |
| --- | --- | --- | --- |
| COC[C@@H]1NC(=O)[C@H](C)N(Cc2ccc(Cl)cc2Oc2ccc(-c3cncc(C4CCC(NCCF)CC4)c3)cc2)C(=O)C[C@@H](Cc2ccccc2)C(=O)N(C)[C@@H](C)CNC(=O)C[C@H](Cc2ccc(Cl)cc2)N(C)C1=O (stereo partly drawn) | 2.7 |  |  |
| COC[C@@H]1NC(=O)[C@H](C)N(Cc2ccc(Cl)cc2Oc2ccc(-c3cncc(C4CCN(CCF)CC4)c3)cc2)C(=O)C[C@@H](Cc2ccccc2)C(=O)N(C)[C@@H](C)CNC(=O)C[C@H](Cc2ccc(Cl)cc2)N(C)C1=O | 3.2 |  |  |
| COC[C@@H]1NC(=O)[C@H](C)N(Cc2ccc(Cl)cc2Oc2ccc(-c3cnc(CN(C)C)n3C)cc2)C(=O)C[C@H](Cn2cccn2)C(=O)N(C)[C@H]2CCCC[C@@H]2NC(=O)C[C@H](Cc2ccc(Cl)cc2)N(C)C1=O [Compound 2, (4S,7S,10S,14R,16aS,20aS)-14-((1H-pyrazol-1-yl)methyl)-11-(4-chloro-2-(4-(2-((dimethylamino)methyl)-1-methyl-1H-imidazol-5-yl)phenoxy)benzyl)-4-(4-chlorobenzyl)-7-(methoxymethyl)-5,10,16-trimethylhexadecahydrobenzo[l][1,4,7,11,14]pentaazacyclooctadecine-2,6,9,12,15(3H)-pentaone] |  | 95.16 | 172 |
| CNCC[C@H]1C(=O)N[C@@H](COC)C(=O)N(C)[C@@H](Cc2ccc(Cl)cc2)CC(=O)N[C@H]2CCCC[C@@H]2N(C)C(=O)[C@H](Cc2ccccc2)CC(=O)N1Cc1ccc(Cl)cc1Oc1ccc(-c2cnc(CN(C)C)n2C)cc1 [Compound 3, (4S,7S,10S,14R,16aS,20aS)-14-benzyl-11-(4-chloro-2-(4-(2-((dimethylamino)methyl)-1-methyl-1H-imidazol-5-yl)phenoxy)benzyl)-4-(4-chlorobenzyl)-7-(methoxymethyl)-5,16-dimethyl-10-(2-(methylamino)ethyl)hexadecahydrobenzo[l][1,4,7,11,14]pentaazacyclooctadecine-2,6,9,12,15(3H)-pentaone] |  | 95.68 | 1.3 |
| COC[C@@H]1NC(=O)[C@H](CCCNC(=O)OC(C)(C)C)N(Cc2ccc(Cl)cc2Oc2ccc(-c3cnc(CN(C)C)n3C)cc2)C(=O)C[C@@H](Cc2ccccc2)C(=O)N(C)[C@@H](C)CNC(=O)C[C@H](Cc2ccc(Cl)cc2)N(C)C1=O [Compound 4, tert-butyl (3-((2S,5S,8S,13S,16R)-16-benzyl-1-(4-chloro-2-(4-(2-((dimethylamino)methyl)-1-methyl-1H-imidazol-5-yl)phenoxy)benzyl)-8-(4-chlorobenzyl)-5-(methoxymethyl)-7,13,14-trimethyl-3,6,10,15,18-pentaoxo-1,4,7,11,14-pentaazacyclooctadecan-2-yl)propyl)carbamate] |  | 97.50 | 2.9 |
| COC[C@@H]1NC(=O)[C@H](C)N(Cc2ccc(Cl)cc2Oc2ccc(-c3cnc(CN(C)C)n3C)cc2)C(=O)C[C@@H](C)C(=O)N(C)[C@@H](CC2CC2)CNC(=O)C[C@H](Cc2ccc(Cl)cc2)N(C)C1=O [Compound 5, (2S,5S,8S,13S,16R)-1-(4-chloro-2-(4-(2-((dimethylamino)methyl)-1-methyl-1H-imidazol-5-yl)phenoxy)benzyl)-8-(4-chlorobenzyl)-13-(cyclopropylmethyl)-5-(methoxymethyl)-2,7,14,16-tetramethyl-1,4,7,11,14-pentaazacyclooctadecane-3,6,10,15,18-pentaone] |  | 83.48 | 9.6 |

Now from value to compound:

| IC50 [nM] | Max % inhibition [%] | IC50 [1] [nM] | Structure (SMILES) |
| --- | --- | --- | --- |
|  | 103.43 | 9.3 | COC[C@@H]1NC(=O)C(C)N(Cc2ccc(Cl)cc2Oc2ccc(-c3cnc(CN(C)C)n3C)cc2)C(=O)C[C@@H](Cc2ccccc2)C(=O)N(C)[C@H]2CCCC[C@@H]2NC(=O)C[C@H](Cc2ccc(Cl)cc2)N(C)C1=O (single isomer, unassigned) [Compound 58] |
|  | 76.18 | 7.6 | COC[C@@H]1NC(=O)[C@H](CCN)N(Cc2ccc(Cl)cc2Oc2ccc(-c3cnc(CN(C)C)n3C)cc2)C(=O)C[C@@H](Cc2ccccc2)C(=O)N(C)[C@H]2CCCC[C@@H]2NC(=O)C[C@H](Cc2ccc(Cl)cc2)N(C)C1=O (single isomer, unassigned) [Compound 109] |
|  | 83.07 | 286 | COC[C@@H]1NC(=O)C(CCN)N(Cc2ccc(Cl)cc2Oc2ccc(-c3cnc(CN(C)C)n3C)cc2)C(=O)C[C@@H](Cc2ccccc2)C(=O)N(C)[C@H]2CCCC[C@@H]2NC(=O)C[C@H](Cc2ccc(Cl)cc2)N(C)C1=O (single isomer, unassigned) [Compound 204] |
|  | 93.20 | 1.4 | COC[C@@H]1NC(=O)[C@H](C)N(Cc2ccc(Cl)cc2Oc2ccc(-c3cnc(CN4CCCC4)n3C)cc2)C(=O)C[C@@H](Cc2ccccc2)C(=O)N(C)C2CCOCC2NC(=O)C[C@H](Cc2ccc(Cl)cc2)N(C)C1=O (single isomer, unassigned) [Compound 274] |
|  | 48.77 | 331 | COC[C@@H]1NC(=O)[C@H](C)N(Cc2ccc(Oc3ccc(-c4cnc(CN(C)C)n4C)cc3)cc2F)C(=O)C[C@@H](Cc2ccccc2)C(=O)N(C)C2CCCCC2NC(=O)C[C@H](Cc2ccc(Cl)cc2)N(C)C1=O (stereo in doubt) [Compound 15, (4S,7S,10S,14R,16aS,20aS)-14-benzyl-4-(4-chlorobenzyl)-11-(4-(4-(2-((dimethylamino)methyl)-1-methyl-1H-imidazol-5-yl)phenoxy)-2-fluorobenzyl)-7-(methoxymethyl)-5,10,16-trimethylhexadecahydrobenzo[l][1,4,7,11,14]pentaazacyclooctadecine-2,6,9,12,15(3H)-pentaone] |
|  | 104.32 | 1.5 | COC[C@@H]1NC(=O)[C@H](CC(=O)N2CC(C)(O)C2)N(Cc2ccc(Cl)cc2Oc2ccc(-c3cnc(CN(C)C)n3C)cc2)C(=O)C[C@@H](Cc2ccccc2)C(=O)N(C)C2CCCCC2NC(=O)C[C@H](Cc2ccc(Cl)cc2)N(C)C1=O (stereo in doubt) [Compound 52, (4S,7S,10S,14R,16aS,20aS)-14-benzyl-11-(4-chloro-2-(4-(2-((dimethylamino)methyl)-1-methyl-1H-imidazol-5-yl)phenoxy)benzyl)-4-(4-chlorobenzyl)-10-(2-(3-hydroxy-3-methylazetidin-1-yl)-2-oxoethyl)-7-(methoxymethyl)-5,16-dimethylhexadecahydrobenzo[l][1,4,7,11,14]pentaazacyclooctadecine-2,6,9,12,15(3H)-pentaone] |
|  | 106.00 | 10.1 | COC[C@@H]1NC(=O)[C@H](C)N(Cc2ccc(Cl)cc2Oc2ccc(-c3cnc(C(C)N4CCCC4)n3C)cc2)C(=O)C[C@@H](C)C(=O)N(C)[C@@H](C)CNC(=O)C[C@H](Cc2ccc(Cl)cc2)N(C)C1=O (stereo in doubt) [Compound 103, (2S,5S,8S,13S,16R)-1-(4-chloro-2-(4-(1-methyl-2-((S)-1-(pyrrolidin-1-yl)ethyl)-1H-imidazol-5-yl)phenoxy)benzyl)-8-(4-chlorobenzyl)-5-(methoxymethyl)-2,7,13,14,16-pentamethyl-1,4,7,11,14-pentaazacyclooctadecane-3,6,10,15,18-pentaone] |
|  | 106.45 | 2 | COC[C@@H]1NC(=O)[C@H](CC(=O)N2CC3(COC3)C2)N(Cc2ccc(Cl)cc2Oc2ccc(-c3cnc(CN(C)C)n3C)cc2)C(=O)C[C@@H](Cc2ccccc2)C(=O)N(C)C2CCCCC2NC(=O)C[C@H](Cc2ccc(Cl)cc2)N(C)C1=O (stereo in doubt) [Compound 106, (4S,7S,10S,14R,16aS,20aS)-14-benzyl-11-(4-chloro-2-(4-(2-((dimethylamino)methyl)-1-methyl-1H-imidazol-5-yl)phenoxy)benzyl)-4-(4-chlorobenzyl)-7-(methoxymethyl)-5,16-dimethyl-10-(2-oxo-2-(2-oxa-6-azaspiro[3.3]heptan-6-yl)ethyl)hexadecahydrobenzo[l][1,4,7,11,14]pentaazacyclooctadecine-2,6,9,12,15(3H)-pentaone] |
|  | 49.36 | 774 | C[C@H]1CNC(=O)C[C@H](Cc2ccc(Cl)cc2)N(C)C(=O)[C@H](CO)NC(=O)[C@H](C)N(Cc2ccccc2OCC(=O)N2Cc3cccnc3C2)C(=O)C[C@@H](Cc2ccccc2)C(=O)N1C (stereo in doubt) [Compound 143, (2S,5S,8S,13S,16R)-16-benzyl-8-(4-chlorobenzyl)-5-(hydroxymethyl)-2,7,13,14-tetramethyl-1-(2-(2-oxo-2-(5H-pyrrolo[3,4-b]pyridin-6(7H)-yl)ethoxy)benzyl)-1,4,7,11,14-pentaazacyclooctadecane-3,6,10,15,18-pentaone] |
|  | 93.00 | 9.9 | COC[C@@H]1NC(=O)[C@H](C)N(Cc2c(OCC(F)(F)F)cc(Cl)cc2Oc2ccc(-c3cnc(CN4CCCC4)n3C)cc2)C(=O)C[C@@H](C)C(=O)N(C)[C@@H](C)CNC(=O)C[C@H](Cc2ccc(Cl)cc2)N(C)C1=O [Compound 7, (2S,5S,8S,13S,16R)-1-(4-chloro-2-(4-(1-methyl-2-(pyrrolidin-1-ylmethyl)-1H-imidazol-5-yl)phenoxy)-6-(2,2,2-trifluoroethoxy)benzyl)-8-(4-chlorobenzyl)-5-(methoxymethyl)-2,7,13,14,16-pentamethyl-1,4,7,11,14-pentaazacyclooctadecane-3,6,10,15,18-pentaone] |
